Molecules are shown by their SMILES.

As a reminder, the Km is the concentration of substrate that gives half-maximal velocity.

In series [1] the test system is HRP (horseradish peroxidase). The experiment in a line: Drug metabolism in sorensen buffer assessed as apparent Km for drug oxidation measured for 20 mins by Michaelis-Menten equation analysis in presence of HRP and H2O2. As to conditions: horseradish peroxidase (HRP) with H2O2 in Sorensen buffer; call rule not given here. Format: physicochemical.
Series [2] can be described thus: Induction of DNA degradation in calf thymus DNA at 0.5 mM after 1 hr by agarose gel electrophoresis in presence of HRP and H2O2. As to conditions: cattle, 500 µM.
Series [3] is described as follows: Drug metabolism in sorensen buffer assessed as formation of reactive intermediate during drug oxidation at 92 uM at pH 7.4 up to 24 mins in the presence of HRP by UV/vis spectrophotometry. Format: physicochemical. As to conditions: pH 7.4, 0.4 h.
A short description of series [4]: Drug metabolism in sorensen buffer assessed as formation of reactive intermediate during drug oxidation at 92 uM at pH 7.4 up to 24 mins in the presence of HRP and H2O2 by UV/vis spectrophotometry. The class given is physicochemical. As to conditions: pH 7.4, 0.4 h.
The nature of series [5]: Drug metabolism in sorensen buffer assessed as formation of reactive intermediate during drug oxidation at 92 uM at pH 7.4 up to 24 mins in the presence of H2O2 by UV/vis spectrophotometry. The class given is physicochemical. As to conditions: pH 7.4, 0.4 h.
The nature of series [6]: Induction of DNA degradation in calf thymus DNA at 2 mM after 2 hrs by PCI extraction-based spectrophotometric analysis in presence of HRP and H2O2. As to conditions: cattle, 2000 µM.
Series [7] is described as follows: Drug metabolism in sorensen buffer assessed as iminodibenzyl formation at pH 7.4 in the presence of HRP and H2O2 by GC/MS analysis. Format: physicochemical.
The nature of series [8]: Drug metabolism in water assessed as formation of reactive intermediate during drug oxidation at 1 mM in the presence of HRP and H2O2 UV/vis spectrophotometry. The class given is physicochemical. As to conditions: buffer, 1000 µM.
The nature of series [9]: Drug metabolism in water assessed as formation of 3-chloroiminodibenzyl in the presence of HRP and H2O2 UV/Vis spectrophotometry. Format: physicochemical. As to conditions: buffer.

`CNCCCN1c2ccccc2CCc2ccccc21.Cl` [DESIPRAMINE HYDROCHLORIDE]: in series [1], the Km at 20 min is 4.4 mM. Moreover, the Activity entry in series [2] and in series [6] was “Toxic” throughout. For the same compound, the Drug metabolism entry in [3] is “Not Active”; in [4] it was “Active”; in series [5] it was “Not Active”; in series [7] it was “Active”.
`CN(C)CCCN1c2ccccc2CCc2ccc(Cl)cc21.Cl` [CLOMIPRAMINE HYDROCHLORIDE]: the Drug metabolism entry in series [8] and in series [9] was “Active” in each case. Besides, the Activity result in series [2] and in [6] was “Toxic” throughout.

The values are drawn from ChEMBL document CHEMBL2157959, “Reactive metabolites of desipramine and clomipramine: The kinetics of formation and reactivity with DNA” (Bioorg Med Chem, 2012).
